# From publication PMC8119466, “A screen of FDA-approved drugs identifies inhibitors of protein tyrosine phosphatase 4A3 (PTP4A3 or PRL-3)” (Scientific Reports, 2021)
# Where a name gives a salt, the structure may show the parent alone.
# What was measured:
# Assay type in all cases: biochemical
# Conditions in all cases: FDA-approved drug screen; compared to DMSO
# recombinant PRL-1 = target: T1, recombinant PRL-1 (Homo sapiens, UniProt Q93096); experiment: In vitro phosphatase assay (DiFMUP hydrolysis), PRL-1; further: test concentration or dose not given here
# T1 construct: 6xHis (N, cleaved yes); made in house; host or cells: E. coli One Shot BL21 Star
# T1 sequence (Q93096 1-173): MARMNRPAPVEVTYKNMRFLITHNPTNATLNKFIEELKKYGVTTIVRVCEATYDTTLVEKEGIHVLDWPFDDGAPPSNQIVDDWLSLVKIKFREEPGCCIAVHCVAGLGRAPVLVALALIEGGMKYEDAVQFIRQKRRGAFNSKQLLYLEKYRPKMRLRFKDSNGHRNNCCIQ
# recombinant PRL-2 = target: T2, recombinant PRL-2 (Homo sapiens, UniProt Q12974); experiment: In vitro phosphatase assay (DiFMUP hydrolysis), PRL-2;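 further: PRL-2 activity read as DiFMUP hydrolysis after 20 min at room temperature with drug, enzyme first pre-reduced at 4 °C for 20 min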
# T2 construct: 6xHis (N, cleaved yes); made in house; host or cells: E. coli One Shot BL21 Star
# T2 sequence (Q12974 1-167): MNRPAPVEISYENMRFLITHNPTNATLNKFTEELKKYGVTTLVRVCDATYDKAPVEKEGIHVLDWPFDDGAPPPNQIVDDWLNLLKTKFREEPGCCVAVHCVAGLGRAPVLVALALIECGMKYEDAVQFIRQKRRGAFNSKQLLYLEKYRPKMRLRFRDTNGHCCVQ
# recombinant PRL-3 = target: T3, recombinant PRL-3 (Homo sapiens, UniProt O75365); experiment: In vitro phosphatase assay (DiFMUP hydrolysis), PRL-3; further: test concentration or dose not given here
# T3 construct: 6xHis (N, cleaved yes); made in house; host or cells: E. coli One Shot BL21 Star
# T3 sequence (O75365 whole entry): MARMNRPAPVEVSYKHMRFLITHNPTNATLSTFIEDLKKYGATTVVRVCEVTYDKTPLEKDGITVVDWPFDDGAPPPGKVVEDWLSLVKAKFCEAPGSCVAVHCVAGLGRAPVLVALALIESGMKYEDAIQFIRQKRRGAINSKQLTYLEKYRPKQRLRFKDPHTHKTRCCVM
Structure (SMILES),% Phosphatase Activity (compared to DMSO) PRL-1 (recombinant PRL-1) [%],% Phosphatase Activity (compared to DMSO) PRL-2 (recombinant PRL-2) [%],% Phosphatase Activity (compared to DMSO) PRL-3 (recombinant PRL-3) [%]
C=CC(=O)Nc1cccc(Nc2nc(Nc3ccc(N4CCN(C(C)=O)CC4)cc3OC)ncc2C(F)(F)F)c1 [CO-1686 (AVL-301)],93,82,98
O=C(O)c1ccc2c(c1)nc(Nc1cccc(Cl)c1)c1ccncc12 [CX-4945 (Silmitasertib)],85,81,86
Nc1nc(=O)c2c([nH]1)NC[C@H](CNc1ccc(C(=O)N[C@@H](CCC(=O)[O-])C(=O)[O-])cc1)N2C=O.[Ca+2] [Calcium Levofolinate],96,101,105
C[C@H](CS)C(=O)N1CCC[C@H]1C(=O)O [Captopril],90,99,82
NC(=O)N1c2ccccc2C=Cc2ccccc21 [Carbamazepine],98,112,80
N.N.O=C([O-])C1(C(=O)[O-])CCC1.[Pt+2] [Carboplatin],90,79,85
CC(C)C[C@H](NC(=O)[C@H](CCc1ccccc1)NC(=O)CN1CCOCC1)C(=O)N[C@@H](Cc1ccccc1)C(=O)N[C@@H](CC(C)C)C(=O)[C@@]1(C)CO1 [Carfilzomib (PR-171)],97,88,94
CCCCCCNC(=O)n1cc(F)c(=O)[nH]c1=O [Carmofur],89,95,73
CC(C)(C)NCC(O)COc1cccc2c1CCC(=O)N2 (stereo not drawn) [Carteolol HCl],100,87,71
CC(=O)O.CC(=O)O.CC[C@H](C)C[C@H](C)CCCCCCCCC(=O)N[C@H]1C[C@@H](O)[C@@H](NCCN)NC(=O)[C@@H]2[C@@H](O)CCN2C(=O)[C@H]([C@H](O)CCN)NC(=O)[C@H]([C@H](O)[C@@H](O)c2ccc(O)cc2)NC(=O)[C@@H]2C[C@@H](O)CN2C(=O)[C@H]([C@@H](C)O)NC1=O [Caspofungin Acetate],106,113,109
COc1cc2c(Oc3ccc4[nH]c(C)cc4c3F)ncnc2cc1OCCCN1CCCC1 [Cediranib (AZD2171)],100,105,90
C=CC1=C(C(=O)O)N2C(=O)[C@@H](NC(=O)/C(=N\O)c3csc(N)n3)[C@H]2SC1 [Cefdinir],109,110,88
CO/N=C(\C(=O)N[C@@H]1C(=O)N2C(C(=O)O)=C(CSc3nnnn3C)CS[C@H]12)c1csc(N)n1.CO/N=C(\C(=O)N[C@@H]1C(=O)N2C(C(=O)O)=C(CSc3nnnn3C)CS[C@H]12)c1csc(N)n1.Cl [Cefmenoxime hydrochloride],92,98,84
CCN1CCN(C(=O)N[C@@H](C(=O)N[C@@H]2C(=O)N3C(C(=O)O)=C(CSc4nnnn4C)CS[C@H]23)c2ccc(O)cc2)C(=O)C1=O [Cefoperazone],100,94,89

# Results, then the molecule that gave them:
% Phosphatase Activity (compared to DMSO) PRL-1 (recombinant PRL-1) [%],% Phosphatase Activity (compared to DMSO) PRL-2 (recombinant PRL-2) [%],% Phosphatase Activity (compared to DMSO) PRL-3 (recombinant PRL-3) [%],Structure (SMILES)
94,87,79,C#Cc1cccc(Nc2ncnc3cc(OC)c(OCCCCCCC(=O)NO)cc23)c1 [CUDC-101]
88,107,89,CO[C@H]1C(=O)[C@]2(C)[C@@H](OC)C[C@H]3OC[C@@]3(OC(C)=O)[C@H]2[C@H](OC(=O)c2ccccc2)[C@]2(O)C[C@H](OC(=O)[C@H](O)[C@@H](NC(=O)OC(C)(C)C)c3ccccc3)C(C)=C1C2(C)C [Cabazitaxel]
114,104,107,O=C([O-])C(O)[C@H](O)[C@@H](O)[C@H](O)[C@H](O)CO.O=C([O-])C(O)[C@H](O)[C@@H](O)[C@H](O)[C@H](O)CO.[Ca+2] (stereo partly drawn) [Calcium Gluceptate]
98,138,94,CN(C)C(=O)COC(=O)Cc1ccc(OC(=O)c2ccc(NC(=N)N)cc2)cc1 [Camostat Mesilate]
108,123,97,CCCCCOC(=O)Nc1nc(=O)n([C@@H]2O[C@H](C)[C@@H](O)[C@H]2O)cc1F [Capecitabine]
91,100,82,C[N+](C)(C)CCOC(N)=O [Carbachol]
96,103,99,COC(=O)N/N=C/c1c[n+]([O-])c2ccccc2[n+]1[O-] [Carbadox]
85,73,84,CC1(C)[C@@H](OC(=O)CCC(=O)O)CC[C@]2(C)[C@H]3C(=O)C=C4[C@@H]5C[C@@](C)(C(=O)O)CC[C@]5(C)CC[C@@]4(C)[C@]3(C)CC[C@@H]12 [Carbenoxolone Sodium]
68,92,94,C[C@@](Cc1ccc(O)c(O)c1)(NN)C(=O)O [Carbidopa]
103,114,78,CCOC(=O)n1ccn(C)c1=S [Carbimazole]
95,94,71,CC(C(=O)O)c1ccc2c(c1)[nH]c1ccc(Cl)cc12 (stereo not drawn) [Carprofen]
96,95,80,O=c1[nH]c(=O)c2ccccc2o1 [Carsalam]
97,128,111,COc1ccccc1OCCNCC(O)COc1cccc2[nH]c3ccccc3c12 (stereo not drawn) [Carvedilol]
105,98,89,NS(=O)(=O)c1ccc(C(=O)O)cc1 [Carzenide]
97,110,88,Cc1nnc(SCC2=C(C(=O)O)N3C(=O)[C@@H](NC(=O)Cn4cnnn4)[C@H]3SC2)s1 [Cefazolin Sodium]
88,94,113,CO/N=C(\C(=O)N[C@@H]1C(=O)N2C(C(=O)OCOC(=O)C(C)(C)C)=C(/C=C\c3scnc3C)CS[C@H]12)c1csc(N)n1 [Cefditoren Pivoxil]
89,90,90,C=CC1=C(C(=O)O)N2C(=O)[C@@H](NC(=O)/C(=N\OCC(=O)O)c3csc(N)n3)[C@H]2SC1 [Cefixime]
